A short description of this data set: Complexation evaluation by size exclusion chromatography (SEC/HPLC). It is filed as physicochemical. As to conditions: Chol-CpG 20 uM, SEC, UV 260 nm, PBS. The protocol:
As complexation evaluation of the Chol-CpG (K3)/CHP nanogel complex sample prepared in Test Example 1-5, size exclusion chromatography (SEC) was carried out. The conditions were as follows. Column: G3000SWXL (Tosoh Corporation), 7.8 mm×150 mm, detector: UV (260 nm), column detection temperature: 35° C., injection amount: 20 uL, flow rate: 0.5 mL/min, eluent: PBS (pH: 7.4). Using PBS as an eluent, the eluate was detected at 260 nm, which was an absorption wavelength specific to CpG, which was a nucleic acid adjuvant.
As the complexation evaluation of the Chol-CpG (D35)/CHP nanogel complex sample prepared in Test Example 2-3, size exclusion chromatography (SEC) was carried out in the same manner as in Test Example 1-6.
In general terms: Size exclusion chromatography separates by hydrodynamic size, large species first.

In the oligonucleotide strings, read from the 5' end, every base follows the letter of its sugar. An asterisk marks phosphorothioate; unmarked linkages are phosphodiester. Other units and linkages are bracketed, terminal groups are in braces. A string of capitals states the bases alone. {Chol-TEG} = cholesterol attached through a triethylene glycol linker; d = 2'-deoxy (DNA)

For “Chol-CpG (D35): Cholesterol linked to 5′-end of D35 CpG oligonucleotide (SEQ ID NO 2) through a triethylene glycol linker (DNA {Chol-TEG}-dG*dGdTdGdCdAdTdCdGdAdTdGdCdAdGdGdGdG*dG*dG)”, the “complexed ratio with the nanogel” value is around 100% (CHP nanogel 40 uM, molar ratio nanogel:Chol-CpG 2:1) and “about 90%” (molar ratio nanogel:Chol-CpG 1:1).
